In brackets after ≈: the same amount, converted by molar mass.
Legend:
[1] = system: Enterococcus faecalis ATCC 29212; experiment: MIC, broth microdilution (CLSI) versus planktonic bacteria; assay type: cell-based; settings: ATCC29212, 16-20 h, mode of three independent experiments, read-out: MIC, Ef ATCC 29212
[2] = system: Acinetobacter baumannii ATCC 19606; experiment: as above; assay type: cell-based; settings: ATCC19606; Acinetobacter baumannii ATCC 19606; 16-20 h; mode of three independent experiments; read-out: MIC, Ab ATCC 19606
[3] = system: human hepatic cell line (HepG2 ATCC HB-8065); experiment: Human cell viability assay (CellTiter-Glo); settings: Homo sapiens, HepG2, 24 h, read-out: IC50 (μg/mL) HepG2
[4] = system: Acinetobacter baumannii NCTC 13420; experiment: MIC, broth microdilution (CLSI) versus planktonic bacteria; assay type: cell-based; settings: NCTC13420; Acinetobacter baumannii NCTC 13420; 16-20 h; mode of three independent experiments; read-out: MIC, Ab NCTC 13420
[5] = system: Staphylococcus aureus ATCC 29213; experiment: as above; assay type: cell-based; settings: ATCC29213; Staphylococcus aureus ATCC 29213; 16-20 h; mode of three independent experiments; read-out: MIC, Sa ATCC 29213
[6] = system: Escherichia coli ATCC 25922; experiment: as above; assay type: cell-based; settings: ATCC25922; Escherichia coli ATCC 25922; 16-20 h; mode of three independent experiments; read-out: MIC, Ec ATCC 25922
[7] = system: Enterobacter cloacae NCTC 13406; experiment: as above; assay type: cell-based; settings: NCTC13406; Enterobacter cloacae NCTC 13406; 16-20 h; mode of three independent experiments; read-out: MIC, Ecl NCTC 13406
[8] = system: Pseudomonas aeruginosa ATCC 27853; experiment: as above; assay type: cell-based; settings: ATCC27853; Pseudomonas aeruginosa ATCC 27853; 16-20 h; mode of three independent experiments; read-out: MIC, Pa ATCC 27853
[9] = system: Haemophilus influenzae ATCC 49247; experiment: as above; assay type: cell-based; settings: ATCC49247; Haemophilus influenzae ATCC 49247; 16-20 h; mode of three independent experiments; read-out: MIC, Hi ATCC 49247
E. coli MG1655 D87G = assay type: cell-based, Escherichia coli; settings: compared to the isogenic parent strain E. coli MG1655; D87G mutation on DNA gyrase subunit GyrA
E. coli NCTC 13476 = experiment: MIC, broth microdilution (CLSI) versus planktonic bacteria; assay type: cell-based; settings: NCTC13476; Escherichia coli NCTC 13476; 16-20 h; mode of three independent experiments; read-out: MIC, Ec NCTC 13476
E. coli ATCC BAA-2452 = experiment: as above; assay type: cell-based; settings: Escherichia coli ATCC BAA-2452; 16-20 h; mode of three independent experiments; read-out: MIC, Ec ATCC BAA 2452
[10] = system: Streptococcus pneumoniae ATCC 49619; experiment: as above; assay type: cell-based; settings: ATCC49619; Streptococcus pneumoniae ATCC 49619; 16-20 h; mode of three independent experiments; read-out: MIC, Sp ATCC 49619
E. coli MG1655 = experiment: as above; assay type: cell-based, Escherichia coli; settings: Escherichia coli, MG1655, read-out: MIC, Ec MG1655 WT
E. coli MG1655 S83L = assay type: cell-based, Escherichia coli; settings: compared to the isogenic parent strain E. coli MG1655; S83L mutation on DNA gyrase subunit GyrA

Compound | MIC [1] [mg/L] | MIC [2] [mg/L] | IC50 [3] [µg/mL] | MIC [4] [mg/L] | MIC [5] [mg/L] | MIC [6] [mg/L] | MIC [7] [mg/L] | MIC [8] [mg/L] | MIC [9] [mg/L] | Fold increase in MIC, E. coli MG1655 D87G (E. coli MG1655 D87G) [fold] | MIC (E. coli NCTC 13476) [mg/L] | MIC (E. coli ATCC BAA-2452) [mg/L] | MIC [10] [mg/L] | MIC (E. coli MG1655) [mg/L] | Fold increase in MIC, E. coli MG1655 S83L (E. coli MG1655 S83L) [fold]
NCCCOc1ccc2ccc(=O)n(CCN[C@@H]3CC[C@@H]4[C@@H](C3)OC(=O)N4c3ccc4c(n3)NC(=O)CO4)c2c1 [Compound 3, 1-(2-{[(3aR,6R,7aR)-2-oxo-3-{3-oxo-2H,3H,4H-pyrido[3,2-b][1,4]oxazin-6-yl}-octahydro-1,3-benzoxazol-6-yl]amino}ethyl)-7-(3-aminopropoxy)-1,2-dihydroquinolin-2-one] | < 1 | > 100 | > 100 | 10 to 100 (≈ 18.2 to 182 µM) | < 1 | 1 to 10 (≈ 1.82 to 18.2 µM) | 10 to 100 (≈ 18.2 to 182 µM) | 1 to 10 (≈ 1.82 to 18.2 µM) | 10 to 100 (≈ 18.2 to 182 µM) | – | – | – | – | – | –
N#Cc1ccc2ccc(=O)n(CCCN[C@H]3CC[C@H]4[C@H](C3)OC(=O)N4c3ccc4c(n3)NC(=O)CO4)c2c1 [Compound 60, 1-(3-{[(3aS,6S,7aS)-2-oxo-3-{3-oxo-2H,3H,4H-pyrido[3,2-b][1,4]oxazin-6-yl}-octahydro-1,3-benzoxazol-6-yl]amino}propyl)-2-oxo-1,2-dihydroquinoline-7-carbonitrile] | < 1 | < 1 | 10 to 100 (≈ 19.4 to 194 µM) | < 1 | < 1 | < 1 | < 1 | < 1 | < 1 | 2 | < 1 | < 1 | < 1 | < 1 | 4
COc1cnc2ccc(=O)n(CCN[C@H]3CC[C@H]4[C@H](C3)OC(=O)N4c3ccc4c(n3)NC(=O)CO4)c2n1 [Compound 63, (3aS,6S,7aS)-6-[(2-{3-methoxy-6-oxo-5H,6H-pyrido[2,3-b]pyrazin-5-yl}ethyl)amino]-3-{3-oxo-2H,3H,4H-pyrido[3,2-b][1,4]oxazin-6-yl}-octahydro-1,3-benzoxazol-2-one] | < 1 | < 1 | > 100 | < 1 | < 1 | < 1 | < 1 | < 1 | < 1 | 1 | < 1 | < 1 | < 1 | < 1 | 1
COc1ccc2ccc(=O)n(CCCN[C@H]3CC[C@H]4[C@H](C3)OC(=O)N4c3ccc4c(n3)NC(=O)CS4)c2n1 [Compound 85, 1-(3-{[(3aS,6S,7aS)-2-oxo-3-{3-oxo-2H,3H,4H-pyrido[3,2-b][1,4]thiazin-6-yl}-octahydro-1,3-benzoxazol-6-yl]amino}propyl)-7-methoxy-1,2-dihydro-1,8-naphthyridin-2-one] | – | < 1 | 10 to 100 (≈ 18.6 to 186 µM) | < 1 | < 1 | < 1 | < 1 | 1 to 10 (≈ 1.86 to 18.6 µM) | < 1 | 1 | < 1 | < 1 | < 1 | < 1 | 1
O=C1COc2ccc(N3C(=O)O[C@@H]4C[C@H](NCCCn5c(=O)cnc6cc(F)c(F)cc65)CC[C@H]43)nc2N1 [Compound 88, 1-(3-{[(3aR,6R,7aR)-2-oxo-3-{3-oxo-2H,3H,4H-pyrido[3,2-b][1,4]oxazin-6-yl}-octahydro-1,3-benzoxazol-6-yl]amino}propyl)-6,7-difluoro-1,2-dihydroquinoxalin-2-one] | – | < 1 | 10 to 100 (≈ 19 to 190 µM) | < 1 | < 1 | < 1 | < 1 | 1 to 10 (≈ 1.9 to 19 µM) | < 1 | 1 | < 1 | < 1 | < 1 | < 1 | 2
O=C1COc2ccc(N3C(=O)O[C@H]4C[C@@H](NCCCn5c(=O)cnc6cc(F)c(F)cc65)CC[C@@H]43)nc2N1 [Compound 90, 1-(3-{[(3aS,6S,7aS)-2-oxo-3-{3-oxo-2H,3H,4H-pyrido[3,2-b][1,4]oxazin-6-yl}-octahydro-1,3-benzoxazol-6-yl]amino}propyl)-6,7-difluoro-1,2-dihydroquinoxalin-2-one] | – | < 1 | 10 to 100 (≈ 19 to 190 µM) | < 1 | < 1 | < 1 | < 1 | 1 to 10 (≈ 1.9 to 19 µM) | < 1 | 4 | < 1 | < 1 | < 1 | < 1 | 2
O=C1COc2ccc(N3C(=O)O[C@H]4C[C@@H](NCCCn5c(=O)cnc6ccc(F)cc65)CC[C@@H]43)nc2N1 [Compound 92, 1-(3-{[(3aS,6S,7aS)-2-oxo-3-{3-oxo-2H,3H,4H-pyrido[3,2-b][1,4]oxazin-6-yl}-octahydro-1,3-benzoxazol-6-yl]amino}propyl)-7-fluoro-1,2-dihydroquinoxalin-2-one] | – | < 1 | > 100 | < 1 | < 1 | < 1 | < 1 | < 1 | < 1 | 1 | < 1 | < 1 | < 1 | < 1 | 1
O=C1COc2ccc(N3C(=O)O[C@H]4C[C@@H](NCCCn5c(=O)ccc6ncc(OC(F)F)cc65)CC[C@@H]43)nc2N1 [Compound 93, 1-(3-{[(3aS,6S,7aS)-2-oxo-3-{3-oxo-2H,3H,4H-pyrido[3,2-b][1,4]oxazin-6-yl}-octahydro-1,3-benzoxazol-6-yl]amino}propyl)-7-(difluoromethoxy)-1,2-dihydro-1,5-naphthyridin-2-one] | – | < 1 | > 100 | < 1 | < 1 | < 1 | 1 to 10 (≈ 1.8 to 18 µM) | < 1 | < 1 | 1 | < 1 | < 1 | < 1 | < 1 | 1
COc1cnc2ccc(=O)n(CCCN[C@H]3CC[C@H]4[C@H](C3)OC(=O)N4c3ccc4c(n3)NC(=O)CO4)c2c1 [Compound 99, 1-(3-{[(3aS,6S,7aS)-2-oxo-3-{3-oxo-2H,3H,4H-pyrido[3,2-b][1,4]oxazin-6-yl}-octahydro-1,3-benzoxazol-6-yl]amino}propyl)-7-methoxy-1,2-dihydro-1,5-naphthyridin-2-one] | – | 1 to 10 (≈ 1.92 to 19.2 µM) | 10 to 100 (≈ 19.2 to 192 µM) | < 1 | < 1 | < 1 | 1 to 10 (≈ 1.92 to 19.2 µM) | 1 to 10 (≈ 1.92 to 19.2 µM) | < 1 | 1 | < 1 | < 1 | < 1 | < 1 | 0.5
O=C1COc2ccc(N3C(=O)O[C@H]4C[C@@H](NCCn5c(=O)ccc6nccnc65)CC[C@@H]43)nc2N1 [Compound 100, (3aS,6S,7aS)-3-{3-oxo-2H,3H,4H-pyrido[3,2-b][1,4]oxazin-6-yl}-6-[(2-{6-oxo-5H,6H-pyrido[2,3-b]pyrazin-5-yl}ethyl)amino]-octahydro-1,3-benzoxazol-2-one] | – | 1 to 10 (≈ 2.09 to 20.9 µM) | > 100 | < 1 | < 1 | < 1 | 1 to 10 (≈ 2.09 to 20.9 µM) | 10 to 100 (≈ 20.9 to 209 µM) | < 1 | 1 | 1 to 10 (≈ 2.09 to 20.9 µM) | 1 to 10 (≈ 2.09 to 20.9 µM) | < 1 | < 1 | 1

— patent US10487093B2, “Heterocyclic compounds, in particular 2-oxo-4,4,5,5,6,6,7,7-octahydrobenzoxazole derivatives, and their use as antibacterial compounds” (priority 2016, dated 2019)
